For assay [1], the system named is Staphylococcus aureus ATCC 29213. In words: MIC, NCCLS M7-A6 broth microdilution, cation-adjusted Mueller Hinton broth (Table 9, no superscript). The note with it: ATCC 29213. Format: cell-based. In outline:
(§1)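 MIC determined by microdilution in cation-adjusted Mueller Hinton broth after overnight growth at 37° C, defined as the lowest peptide level lacking turbidity.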

Assay [2] relates to Propionibacterium acnes ATCC 6919. Type of assay: cell-based. Summed up:
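MIC by non-standard broth microdilution in reinforced Clostridial broth, log-phase P. acnes inoculum at 5×10^5 to 1×10^6 CFU/mL. Plates were held anaerobically 48–72 h at 37° C; MIC was the lowest peptide concentration with no visible turbidity relative to the no-peptide control.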

Another assay concerns P. acnes. In words: Mouse skin assay, bactericidal activity on excised Balb/c skin. Type of assay: cell-based, Propionibacterium acnes. The settings on record: Incubation time 120 min; P. acnes untreated 0.9 × 10^8 cfu/ml.
A further assay concerns Salmonella dublin (Lane). Briefly: MIC, NCCLS M7-A6 broth microdilution (Table 9, no superscript). Format: cell-based. Summed up:
as §1

Assay [3] concerns Candida albicans ATCC 18804. In words: MIC in yeasts, NCCLS M27-A2 broth microdilution, RPMI 1640 (Table 9, letter e). The note with it: ATCC 18804. Type of assay: cell-based. In outline: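 Plates incubated 24 to 48 hours at 37° C, with yeast seeded at 0.5×10^3–2.5×10^3 CFU/milliliter final in RPMI 1640 (glutamine, phenol red indicator). MIC was read as the lowest peptide concentration showing no visible growth.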
In general terms: Dilution methods test growth across graded concentrations, often in twofold steps.

The subject of assay [4] is Pseudomonas aeruginosa ATCC 27853. The settings on record: ATCC 27853, pH 7.4.
Assay [5] relates to Staphylococcus epidermidis ATCC 12228. The note with it: ATCC 12228, pH 7.4.

We go through two compounds from US20050282755A1, “Compositions having antimicrobial activity and uses thereof” (priority 2004, published 2005).

Non-standard residues stand in square brackets, D forms with d. Residues, ends and D or L forms follow the SMILES beside them. dOrn = NCCC[C@@H](N)C(=O)O

On to `CSCC[C@@H](NC(=O)[C@@H](Cc1ccccc1)NC(=O)[C@@H](CC(N)=O)NC(=O)[C@@H](CCCNC(=N)N)NC(=O)[C@@H](CO)NC(=O)[C@@H](Cc1c[nH]c2ccccc12)NC(=O)[C@@H](CC(=O)O)NC(=O)[C@@H](CCCNC(=N)N)NC(=O)[C@@H](Cc1c[nH]c2ccccc12)NC(=O)[C@@H](CCCNC(=N)N)NC(=O)[C@@H](CO)NC(=O)[C@@H](CCCNC(=N)N)NC(=O)CNC(=O)[C@H](NC(=O)[C@@H](CCCNC(=N)N)NC(=O)[C@@H](CO)NC(=O)[C@H](NC(=O)[C@@H](CCCNC(=N)N)NC(=O)[C@H](NC(C)=O)[C@H](C)O)C(C)C)[C@H](C)O)C(=O)N[C@H](CCCNC(=N)N)C(=O)N[C@H](CCCN)C(=O)N[C@H](CCCN)C(=O)N[C@H](CCCN)C(=O)N[C@H](CCCN)C(=O)N[C@H](CCCN)C(=O)N[C@H](CCCN)C(=O)N[C@H](CCCN)C(=O)N[C@H](CCCN)C(N)=O` [Peptide 35, Ac-trvsrtgrsrwrdwsrnfmroooooooo-NH2] (Ac-[dT][dR][dV][dS][dR][dT]G[dR][dS][dR][dW][dR][dD][dW][dS][dR][dN][dF][dM][dR][dOrn][dOrn][dOrn][dOrn][dOrn][dOrn][dOrn][dOrn]-NH2), for which the “MIC S. aureus” value in assay [1] is above 64 µg/mL. Besides, the “MIC P. acnes” value in assay [2] stood at 6 µg·days/mL. Further, in the assay with P. acnes, the “P. acnes recovered from mouse skin” value is given as 4.5 × 10^4 cfu/ml. In addition, the “MIC S. dublin” value in the assay with Salmonella dublin (Lane) was above 64 µg/mL.
In the case of `CSCC[C@@H](NC(=O)[C@@H](Cc1ccccc1)NC(=O)[C@@H](CC(N)=O)NC(=O)[C@@H](CCCNC(=N)N)NC(=O)[C@@H](C)NC(=O)[C@H](NC(=O)[C@@H](CC(=O)O)NC(=O)[C@@H](CCCNC(=N)N)NC(=O)[C@@H](Cc1c[nH]c2ccccc12)NC(=O)[C@@H](CCCNC(=N)N)NC(=O)[C@@H](CO)NC(=O)[C@@H](CCCNC(=N)N)NC(C)=O)C(C)C)C(=O)N[C@H](CCCNC(=N)N)C(N)=O` [Peptide 96, Ac-rsrwrdvarnfmr-NH2] (Ac-[dR][dS][dR][dW][dR][dD][dV][dA][dR][dN][dF][dM][dR]-NH2), the “MIC S. aureus” value in assay [1] is above 64 µg/mL. For the same compound, in assay [3], the “MIC C. albicans” value was found to be 8e ug/mL. Further, the “MIC P. aeruginosa” value in assay [4] was 50b ug/mL. Besides, the “MIC P. acnes” value in assay [2] came to 12.5 µg·days/mL. In assay [5], the “MIC S. epidermidis” value was 12.5b ug/mL. Moreover, in the assay with Salmonella dublin (Lane), the “MIC S. dublin” value is above 64 µg/mL.
